Results as given in US20170315126A1, “METHOD FOR SCREENING COMPOUND SPECIFICALLY SUPPRESSING FORMATION OF CAVEOLAE OF CANCER CELLS, SCREENING KIT, VECTOR AND TRANSFORMANT TO BE USED IN KIT, AND METHOD FOR SELECTING PATIENT FOR WHOM MOLECULARLY TARGETED DRUG IS INDICATED” (NATIONAL UNIVERSITY CORPORATION NAGOYA INSTITUTE OF …, priority 2014, published 2017).
Read-outs that look alike come from different tables or passages of the source.

B1: human Caveolin 1 (other, UniProt Q03135 2-178, looked up)
chain: SGGKYVDSEGHLYTVPIREQGNIYKPNNKAMADELSEKQVYDAHTKEIDLVNRDPKHLNDDVVKIDFEDVIAEPEGTHSFDGIWKASFTTFTVTKYWFYRLLSALFGIPMALIWGIYFAILSFLHIWAVVPCIKSFLIEIQCISRVYSIYVHTVCDPLFEAVGKIFSNVRINLQKEI
notes: whole, on cells; Endogenous in cell extracts or full length expressed from pCMVpuro-CAV1 in COS-7 cells; also called CAV1; endogenous CAV1
B2: human Cavin-1 (other, UniProt Q6NZI2 1-390, looked up)
chain: MEDPTLYIVERPLPGYPDAEAPEPSSAGAQAAEEPSGAGSEELIKSDQVNGVLVLSLLDKIIGAVDQIQLTQAQLEERQAEMEGAVQSIQGELSKLGKAHATTSNTVSKLLEKVRKVSVNVKTVRGSLERQAGQIKKLEVNEAELLRRRNFKVMIYQDEVKLPAKLSISKSLKESEALPEKEGEELGEGERPEEDAAALELSSDEAVEVEEVIEESRAERIKRSGLRRVDDFKKAFSKEKMEKTKVRTRENLEKTRLKTKENLEKTRHTLEKRMNKLGTRLVPAERREKLKTSRDKLRKSFTPDHVVYARSKTAVYKVPPFTFHVKKIREGQVEVLKATEMVEVGADDDEGGAERGEAGDLRRGSSPDVHALLEITEESDAVLVDKSDSD
notes: whole, on cells; Intracellular protein; endogenous in cell extracts or full length expressed from pCMVpuro-Cavin-1 in COS-7 cells; also called endogenous Cavin-1; pCMVpuro-Cavin-1-WT
B3: Cavin-2 (other, human, UniProt O95810 2-425, looked up)
chain: GEDAAQAEKFQHPGSDMRQEKPSSPSPMPSSTPSPSLNLGNTEEAIRDNSQVNAVTVLTLLDKLVNMLDAVQENQHKMEQRQISLEGSVKGIQNDLTKLSKYQASTSNTVSKLLEKSRKVSAHTRAVKERMDRQCAQVKRLENNHAQLLRRNHFKVLIFQEENEIPASVFVKQPVSGAVEGKEELPDENKSLEETLHTVDLSSDDDLPHDEEALEDSAEEKVEESRAEKIKRSSLKKVDSLKKAFSRQNIEKKMNKLGTKIVSVERREKIKKSLTSNHQKISSGKSSPFKVSPLTFGRKKVREGESHAENETKSEDLPSSEQMPNDQEEESFAEGHSEASLASALVEGEIAEEAAEKATSRGSNSGMDSNIDLTIVEDEEEESVALEQAQKVRYEGSYALTSEEAERSDGDPVQPAVLQVHQTS
notes: whole, on cells; Detected with anti-Cavin-2 (Abcam) in IP-WB of cell extracts

How the values were obtained:
NCI-H1975 cells = settings: cited from earlier work
PC-9 cells = settings: cited from earlier work
PC-9 and NCI-H1975 = test: Cell proliferation by colorimetry (cell counting kit-8) after siRNA transfection; assay type: cell-based, human; settings: 120 hours after transfection
Procedure: Transfection of the siRNA (20 nM each) was conducted in accordance with the manufacturer's instruction manual using lipofectamine RNAiMAX (manufactured by Invitrogen). Cells were recovered 72 hours after transfection for Western blotting analysis. Cells were also recovered 120 hours after transfection for analysis by colorimetry to measure cell proliferation.
siControl or siROR1, siCavin-1, or siCAV1 was transfected against the PC-9 or NCI-H1975 cell line to investigate the effects of silencing of ROR1, Cavin-1, and CAV1 on cell proliferation. A reaction was conducted using a cell counting kit-8 (Dojindo) 120 hours after transfection, the absorbance was measured by a plate reader, and colorimetry was conducted. Furthermore, this experiment was conducted three separate times, and the average values were graphed.

CAV1 = test: Western blotting of CAV1 expression after siRNA transfection in pulmonary adenocarcinoma cell lines; assay type: cell-based, human; settings: siRNA 20 nM
Procedure: Western blotting analysis and IP-WB analysis were conducted by the standard methods using an Immobilon-P filter (manufactured by Millipore Corp.) and an enhanced chemiluminescence system (manufactured by GE Healthcare Inc.). pCMVpuro-Cavin-1-WT was coexpressed with various ROR1 expression constructs such as the wild type (WT), TKΔ473-564 (TKΔ1), TK564-655 (TKΔ2), TKΔ655-746 (TKΔ3), TKΔ473-655 (TKΔ1+×2), TKΔ564-746 (TKΔ2+Δ3), and TKΔ473-746 (TKA1+Δ2+A3) to identify the binding site of ROR1 and Cavin-1. pCMVpuro-CAV1-WT was coexpressed with ROR1 expression constructs such as the wild type (WT), TKΔ473-564 (TKΔ1), TKΔ564-655 (TKΔ2), TKΔ655-746 (TKΔ3), ST1Δ748-782 (ΔST1), PΔ784-851 (ΔP), and ST2Δ853 to 876 (ΔST2) to identify the binding site of ROR1 and CAV1. For these, the cells were recovered 24 hours after transfection by Fugene6 (Promega) using COS-7 cells, and IP-WB analysis was conducted.
Transfection of the siRNA (20 nM each) was conducted in accordance with the manufacturer's instruction manual using lipofectamine RNAiMAX (manufactured by Invitrogen). […] Cells were also recovered 120 hours after transfection for analysis by colorimetry to measure cell proliferation.

[1] = molecular target: T1, human ROR1 (receptor tyrosine kinase-like orphan receptor 1) (human, UniProt Q01973 30-937); test: IP-WB of ROR1 constructs coexpressed with CAV1 in COS-7 cells
T1 construct: whole, on cells; also called endogenous ROR1; ROR1-WT
T1 sequence (Q01973 30-937): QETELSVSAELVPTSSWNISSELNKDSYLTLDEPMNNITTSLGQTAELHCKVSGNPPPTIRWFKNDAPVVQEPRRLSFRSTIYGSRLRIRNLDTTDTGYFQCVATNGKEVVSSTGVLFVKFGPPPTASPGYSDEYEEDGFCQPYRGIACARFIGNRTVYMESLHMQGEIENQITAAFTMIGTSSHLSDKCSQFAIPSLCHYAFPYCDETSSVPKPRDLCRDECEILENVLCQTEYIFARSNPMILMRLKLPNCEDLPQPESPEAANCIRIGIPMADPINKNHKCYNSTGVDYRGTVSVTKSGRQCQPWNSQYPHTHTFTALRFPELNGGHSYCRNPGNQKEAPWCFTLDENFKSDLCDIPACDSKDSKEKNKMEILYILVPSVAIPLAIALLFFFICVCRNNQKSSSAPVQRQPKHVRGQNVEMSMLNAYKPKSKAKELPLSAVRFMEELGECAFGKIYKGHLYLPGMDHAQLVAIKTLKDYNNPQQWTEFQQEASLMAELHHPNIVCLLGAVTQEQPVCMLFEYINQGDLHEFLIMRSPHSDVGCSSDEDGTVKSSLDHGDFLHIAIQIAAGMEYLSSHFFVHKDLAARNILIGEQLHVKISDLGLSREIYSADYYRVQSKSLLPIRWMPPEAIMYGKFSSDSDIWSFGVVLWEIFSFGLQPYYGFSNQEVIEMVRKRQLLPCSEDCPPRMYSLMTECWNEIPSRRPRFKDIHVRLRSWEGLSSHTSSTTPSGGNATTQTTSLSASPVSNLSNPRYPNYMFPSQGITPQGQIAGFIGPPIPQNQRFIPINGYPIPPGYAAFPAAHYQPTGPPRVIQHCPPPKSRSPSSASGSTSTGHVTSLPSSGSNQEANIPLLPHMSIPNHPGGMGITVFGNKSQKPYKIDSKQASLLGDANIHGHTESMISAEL
Procedure: For these, the cells were recovered 24 hours after transfection by Fugene6 (Promega) using COS-7 cells, and IP-WB analysis was conducted.

human Cavin-1 = molecular target: B2; test: IP-WB of NCI-H1975 cell extract 24 hours after transfection of siROR1
[2] = molecular target: T1, human ROR1 (receptor tyrosine …); test: IP-WB of octyl glucoside extracts of NCI-H1975 and SK-LU-1 cells
[3] = molecular target: T1, human ROR1 (receptor tyrosine …); test: IP-WB of endogenous proteins in octyl glucoside cell extracts
[4] = NCI-H1975, 72 hours after transfection

Molecule: CC#CC(=O)Nc1ccc2ncnc(Nc3cccc(Br)c3)c2c1 [CL-387, 785]
sensitivity of cells to EGFR-TKI (NCI-H1975 cells; NCI-H1975 in the presence of HGF): resistance

Molecule: COc1cc2ncnc(Nc3ccc(F)c(Cl)c3)c2cc1OCCCN1CCOCC1 [gefitinib, Gefitinib]
sensitivity of cells to EGFR-TKI (PC-9 cells; PC-9, no ligand): sensitive
sensitivity of cells to EGFR-TKI (PC-9 cells; PC-9 in the presence of HGF): resistance
sensitivity of cells to EGFR-TKI (NCI-H1975 cells; NCI-H1975 (EGFR T790M double mutation), no ligand): resistance

Molecule: siCavin-1#1: RNA oligomer for RNAi against human Cavin-1, 5′-CUCCAAGACCGCGGUCUACAA-3′ (SEQ ID No: 18) (listed as RNA, further chemistry not given here)
cell proliferation (colorimetry) (PC-9 and NCI-H1975): inhibit cell proliferation

Molecule: siCavin-1#2: RNA oligomer for RNAi against human Cavin-1, 5′-CCCGCCGAGCGGCGCGAGAAA-3′ (SEQ ID No: 19) (listed as RNA, further chemistry not given here)
cell proliferation (colorimetry) (PC-9 and NCI-H1975): inhibit cell proliferation

Molecule: siIGF-IR#1: RNA oligomer for RNAi against human IGF-IR, 5′-GGAAUUGCAUGGUAGCCGAUU-3′ (SEQ ID No: 16) (listed as RNA, further chemistry not given here)
CAV1 expression (Western blot) (CAV1; NCI-H358): downregulation of CAV1 was also found
CAV1 expression (Western blot) (CAV1; [4]): downregulate CAV1

Molecule: siIGF-IR#2: RNA oligomer for RNAi against human IGF-IR, 5′-CUGACUACAGGGAUCUCAUUU-3′ (SEQ ID No: 17) (listed as RNA, further chemistry not given here)
CAV1 expression (Western blot) (CAV1; NCI-H358): downregulation of CAV1 was also found
CAV1 expression (Western blot) (CAV1; [4]): downregulate CAV1

Molecule: B1
binding result [1]: binds
binding result (human Cavin-1): binds

Molecule: B2
binding result [2]: binds

Molecule: B3
binding result [3]: no binding
